Assay results: US20070219172A1, “Selective testicular 11beta-HSD inhibitors for the treatment of hypergonadism associated disorders and modulation of fertility” (The Miriam Hospital, priority 2005, published 2007)

What was measured:
11β-HSD1 Reductase = target: T1, 11β-HSD1 Reductase (Rattus norvegicus, UniProt P16232); assay: 11β-HSD1 reductase inhibition, testicular Leydig cell homogenates; assay type: biochemical; settings: result in words
T1 construct: testicular leydig cell homogenates; from tissue; host or cells: testicular Leydig cell homogenates
T1 sequence (P16232 whole entry): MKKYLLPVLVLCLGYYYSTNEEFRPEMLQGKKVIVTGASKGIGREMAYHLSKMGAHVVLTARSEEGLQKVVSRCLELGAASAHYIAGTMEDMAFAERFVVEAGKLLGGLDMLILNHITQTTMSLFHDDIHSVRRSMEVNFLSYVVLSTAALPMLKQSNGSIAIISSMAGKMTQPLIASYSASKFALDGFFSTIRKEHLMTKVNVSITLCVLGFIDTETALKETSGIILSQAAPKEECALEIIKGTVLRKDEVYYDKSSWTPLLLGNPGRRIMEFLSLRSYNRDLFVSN

11β-HSD1 Dehydrogenase = target: T2, 11β-HSD1 Dehydrogenase (Rattus norvegicus, UniProt P16232); assay: 11β-HSD1 dehydrogenase inhibition, testicular Leydig cell homogenates; assay type: biochemical; settings: result in words
T2 construct: testicular leydig cell homogenates; from tissue; host or cells: testicular Leydig cell homogenates
T2 sequence (P16232 whole entry): as above

11β-HSD2 Dehydrogenase = target: T3, 11β-HSD2 Dehydrogenase (Ovis aries, UniProt P50168); assay: 11β-HSD2 dehydrogenase inhibition, sheep kidney microsomes; assay type: biochemical; settings: result in words
T3 construct: sheep kidney microsomes; from tissue; host or cells: sheep kidney microsomes
T3 sequence (P50168 1-427): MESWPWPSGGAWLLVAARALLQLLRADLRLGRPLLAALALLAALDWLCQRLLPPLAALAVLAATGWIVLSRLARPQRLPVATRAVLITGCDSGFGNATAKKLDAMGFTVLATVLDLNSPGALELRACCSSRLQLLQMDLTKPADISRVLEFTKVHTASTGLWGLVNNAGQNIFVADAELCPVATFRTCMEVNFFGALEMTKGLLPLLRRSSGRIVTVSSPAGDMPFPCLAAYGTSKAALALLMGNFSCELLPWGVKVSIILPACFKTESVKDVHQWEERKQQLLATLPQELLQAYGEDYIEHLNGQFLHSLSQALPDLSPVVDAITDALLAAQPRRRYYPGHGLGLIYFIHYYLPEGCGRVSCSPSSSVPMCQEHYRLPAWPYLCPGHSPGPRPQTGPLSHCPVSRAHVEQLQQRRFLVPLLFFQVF

rat aortic rings = assay: Contractile response of rat aortic rings to phenylephrine; settings: rat aortic rings, 24 h, 11-dehydro-corticosterone 100 nmol/L
Protocol: Male Sprague-Dawley (150-200 g) rats were anesthetized with pentobarbital (50 mg/kg IP), and a median sternotomy was performed followed by the rapid removal of the thoracic aorta. The adventitia was removed, but the endothelium was left intact. The aorta was cut into 2-3 mm rings and individual rings were placed into a single well of a twenty four well culture plate and incubated at 37° C. under 95% O2-5% CO2. Each well contained 1 mL of DMEM/F12 containing 1% fetal bovine serum, streptomycin (100 μg/ml), penicillin (100 units/ml) and amphotericin (0.25 μg/ml). Aortic rings were incubated for 24 hours prior to contractility measurements with the following combinations of steroids, and antisense/nonsense oligonucleotides (3 μmol/L):
Antisense phosphorothioate oligonucleotides, targeted to block either 11β-HSD2 or 11β-HSD1 gene expression, were obtained from Research Genetics, Huntsville Ala. Antisense oligomers complementary to 20 bp sequences spanning the ribosome binding/translation start site were used. Oligomer sequences were: 5′-CATAACTGCCGTCCAACAGC-3′ (SEQ ID No.: 2) for 11β-HSD1 Antisense and 5′-AGCCCAGCGCTCCATGACTT-3′ (SEQ ID No. 3) for 111-HSD2 antisense. In control experiments the corresponding sense sequence was used as the nonsense oligomer. Antisense and nonsense oligomers were added directly to each well at 20 μg/10:1 sterile H20 per well for a final concentration of 3 μmol/L.
For contraction measurements, aortic rings were suspended by tungsten wires with 1 g of tension and placed in a vessel bath containing serum free DMEM/F12 media at 37° C. aerated with 95% O2-5% CO2, at pH 7.4. Vessels were equilibrated for 20 minutes and then tested with phenylephrine ([…]-10 μmol/L). […] The intensity of contraction was assessed by use of a Narishige micromanipulator and model FT03 force transducer (Grass Instrument Co. West Warwick, R.I.). Measurements were recorded on computer using the Labview 4.1 Virtual Instrument System (National Instruments, Austin, Tex.).

[1] = system: 11β-HSD1-reductase activity in rat aortic rings; assay: Conversion of 3H-11-dehydrocorticosterone to corticosterone by aortic rings; settings: vascular tissue
Protocol: (ii) ^3H-11-dehydro-corticosterone (10 nmol/L)±11β-HSD1 antisense (3 μmol/L); this experiment was performed in duplicate (n=10 aortic rings per well). Control groups were incubated with the appropriate nonsense oligomer. ^3H-corticosterone in the incubation medium after 24 hrs was then measured. In this experiment, aortic rings were also analyzed for ^3H-corticosterone content. Rings from duplicate incubations (total n=20) were blotted dry, pooled and homogenized in 50% methanol using a Polytron. The homogenates were then centrifuged, extracted as below using Sep-Paks and injected onto a HPLC system for analysis.
Incubation media was collected, ran through a Sep-Pak and eluted with 3 mls of methanol, the eluate was then dried under nitrogen and reconstituted in 500:1 methanol. The aortic rings were dried and weighed. The steroids present in the eluate were separated by high-pressure liquid chromatography with a Dupont Zorbax C8 column eluted at 44° C. at a flow rate of 1 mL/min using 55% methanol for 10 minutes. Steroids were observed by monitoring radioactivity on-line with a Packard Radiomatic Flo-One/Beta Series A-500 counter connected to a Dell Optiflex 425 S/L computer. Corticosterone and 11-dehydro-corticosterone were identified by comparing their retention times with that of known standards.

CC(=O)[C@H]1CC[C@H]2[C@@H]3CCC4=CC(=O)CC[C@]4(C)[C@H]3C(=O)C[C@]12C [11-Keto-progesterone]
11β-HSD1 Reductase inhibition (11β-HSD1 Reductase): Selective Inhibitor | 11β-HSD1 Dehydrogenase inhibition (11β-HSD1 Dehydrogenase): No Inhibition | 11β-HSD2 Dehydrogenase inhibition (11β-HSD2 Dehydrogenase): Potent Inhibitor | ability of 11-dehydro-corticosterone to amplify the contractile response to phenylephrine (rat aortic rings): diminished | metabolism of 11-dehydro-corticosterone back to corticosterone [1]: decreased
